Results reported in patent US20140242093A1, “METHODS AND COMPOSITIONS FOR MODULATING THE INNATE IMMUNE RESPONSE AND/OR MYOGENESIS IN A MAMMALIAN SUBJECT” (FRED HUTCHINSON CANCER RESEARCH CENTER, priority 2011, published 2014).

System: control human primary myoblasts
Experiment: Expression microarray of primary myoblasts transduced with lentivirus carrying DUX4-fl, DUX4-s or GFP
Procedure: Primary human myoblasts were collected and cultured as previously described (Snider et al., 2010). Primary myoblasts were maintained at or below 70% confluency for proliferation. For differentiation, cells were allowed to reach 95-100% confluency in growth medium. Once confluency was reached, the cells were changed to differentiation medium (F10 media supplemented with 1% horse serum, 10 μg/mL insulin, and 10 μg/mL transferrin, penicillin/streptomycin) and maintained for 4 days. Human RD cells were grown in DMEM in 10% bovine calf serum (Hyclone) and penicillin/streptomycin. The primary myoblasts were transduced with lentivirus carrying DUX-fl, DUX4- or GFP (MOI=15).
Expression microarrays were performed on the transduced cells at 24 hours after transduction as follows. […] Samples were analyzed by Illumina Human Whole Genome microarrays. Probe intensities were corrected, normalized, and summarized by the Lumi package of Bioconductor (Du et al., 2008). Differentially expressed genes were identified by the LIMMA package of Bioconductor (Wettenhall and Smyth, 2004). Gene set enrichment analysis (GSEA) was performed using the Bioconductor GOstats package (Falcon and Gentleman, 2007).

DUX4-fl: full-length DUX4 protein (SEQ ID NO:110), expressed from lentiviral or pCS2 vectors or in vitro translated
LOC728450 expression fc (Refseq XM_001131473.2): 2.474 | RFNG fc (Refseq XM_001132711.1): −1.116 | LOC732416 expression fc (Refseq XM_001133386.1): 2.329 | THOC4 expression fc (Refseq XM_001134346.1): 4.035 | PRAMEF15 expression fc (Refseq XM_001713659.1): 7 | LOC100131392 expression fc (Refseq XM_001713681.1): 6.976 | LOC100132564 expression fc (Refseq XM_001713808.1): 3.588 | LOC391769 expression fc (Refseq XM_001713901.1): 8.19 | PRAMEF13 expression fc (Refseq XM_001713933.1): 7.422 | PRAMEF11 expression fc (Refseq XM_001714028.1): 5.94 | fc of LOC285296 (expression array) (Refseq XM_001714301.1): −1.042 | LOC100133588 expression fc (Refseq XM_001714755.1): 2.2 | CTGLF7 expression fc (Refseq XM_001714786.1): 3.437 | LOC100129630 expression fc (Refseq XM_001714940.1): 1.871 | LOC391763 expression fc (Refseq XM_001715080.1): 1.963 | LOC642446 expression fc (Refseq XM_001717781.1): 3.101 | LOC100133446 expression fc (Refseq XM_001717965.1): 4.635 | LOC100129165 fc (Refseq XM_001718314.1): −1.161 | LOC643336 expression fc (Refseq XM_001718563.1): 1.934 | LOC100129053 expression fc (Refseq XM_001718702.1): 2.724 | LOC100130652 expression fc (Refseq XM_001719052.1): 3.33 | RFPL4A expression fc (Refseq XM_001719234.1): 4.348 | LOC728809 fc (Refseq XM_001719546.1): −1.14 | LOC100134199 expression fc (Refseq XM_001719549.1): 8.048 | PNMA6B expression fc (Refseq XM_001721351.1): 3.603 | LOC100133984 expression fc (Refseq XM_001723079.1): 6.204 | LOC649330 expression fc (Refseq XM_001723218.1): 3.101 | LOC100128202 expression fc (Refseq XM_001723719.1): 3.711 | LOC100130311 expression fc (Refseq XM_001724111.1): 2.912 | LOC100131539 expression fc (Refseq XM_001724873.1): 4.629 | LOC100134006 expression fc (Refseq XM_001725030.1): 7.087 | LOC730167 expression fc (Refseq XM_001726158.1): 3.656 | LOC100129681 expression fc (Refseq XM_001726834.1, cultured human skeletal muscle): −4.075 | LOC651709 expression fc (Refseq XM_001732813.1): 2.304 | LOC727828 expression fc (Refseq XR_015137.1): 3.054 | LOC728060 fc (Refseq XR_015272.2): −1.095 | LOC732393 expression fc (Refseq XR_015873.1): 4.637 | MGC40489 expression fc (Refseq XR_016048.1): 2.542 | LOC643263 expression fc (Refseq XR_016355.1): 8.345 | LOC441081 expression fc (Refseq XR_017029.1): 3.764 | LOC647366 expression fc (Refseq XR_018122.1): 3.783 | LOC440041 expression fc (Refseq XR_018122.2): 3.895 | LOC647827 expression fc (Refseq XR_018213.1): 4.053 | LOC399988 expression fc (Refseq XR_018287.2): 1.966 | LOC650215 fc (Refseq XR_018889.1): −1.139 | fc of RBMS2P (expression array) (Refseq XR_019556.2): −0.4507 | LOC642148 expression fc (Refseq XR_019607.1): 6.851 | LOC650236 expression fc (Refseq XR_036872.1): 2.915 | LOC100134322 expression fc (Refseq XR_037416.1): 2.488 | LOC730974 expression fc (Refseq XR_037751.1): 7.715 | LOC643445 expression fc (Refseq XR_038080.1): 8.25 | LOC729516 expression fc (Refseq XR_038445.1): 5.955 | LOC340970 expression fc (Refseq XR_038494.1): 8.316 | LOC645381 expression fc (Refseq XR_038557.1): 2.089 | LOC728429 expression fc (Refseq XR_038921.1): 2.178 | LOC645638 fc (Refseq XR_040455.1): −1.128 | LOC400464 expression fc (Refseq XR_041115.1): 2.831 | TRIM53 expression fc (Refseq XR_041244.1): 4.778 | LOC729009 expression fc (Refseq XR_042330.1, cultured human skeletal muscle): −2.654 | number of genes increased 8-fold or more (Table 1): 164 genes | number of genes increased 16-fold or more (Table 1): 107 genes | ABCC3 expression fc (cultured human skeletal muscle): −1.491 | ADM expression fc (cultured human skeletal muscle): −1.619 | AGTRAP expression fc (cultured human skeletal muscle): −1.467 | AHNAK expression fc (cultured human skeletal muscle): −1.441 | ANGPTL2 expression fc (cultured human skeletal muscle): −1.893 | ANKFY1 expression fc (cultured human skeletal muscle): −1.396 | APOL3 expression fc (cultured human skeletal muscle): −1.548 | ARHGEF19 expression fc (cultured human skeletal muscle): −1.4 | ARID3A expression fc (cultured human skeletal muscle): −1.573 | ASNS expression fc (cultured human skeletal muscle): −1.454 | ATF5 expression fc (cultured human skeletal muscle): −1.826 | ATL3 expression fc (cultured human skeletal muscle): −1.455 | BHLHB2 expression fc (cultured human skeletal muscle): −1.43 | BTG2 expression fc (cultured human skeletal muscle): −1.573 | BTN3A2 expression fc (cultured human skeletal muscle): −1.759 | BTN3A3 expression fc (cultured human skeletal muscle): −1.62 | C1RL expression fc (cultured human skeletal muscle): −1.627 | C4orf18 expression fc (cultured human skeletal muscle): −1.781 | C8orf13 expression fc (cultured human skeletal muscle): −1.412 | C14orf4 expression fc (cultured human skeletal muscle): −1.476 | C18orf56 expression fc (cultured human skeletal muscle): −1.619 | CA9 expression fc (cultured human skeletal muscle): −1.526 | CABC1 expression fc (cultured human skeletal muscle): −1.494 | CABYR expression fc (cultured human skeletal muscle): −1.758 | CCDC8 expression fc (cultured human skeletal muscle): −1.453 | CEBPD expression fc (cultured human skeletal muscle): −1.521 | CLDN15 expression fc (cultured human skeletal muscle): −1.554 | CNTNAP1 expression fc (cultured human skeletal muscle): −1.744 | COL8A1 expression fc (cultured human skeletal muscle): −1.527 | CRISPLD2 expression fc (cultured human skeletal muscle): −1.752 | CSF3 expression fc (cultured human skeletal muscle): −1.626 | CYGB expression fc (cultured human skeletal muscle): −1.398 | CYP26B1 expression fc (cultured human skeletal muscle): −1.461 | CYP27A1 expression fc (cultured human skeletal muscle): −1.6 | DAB2 expression fc (cultured human skeletal muscle): −1.807 | DCN expression fc (cultured human skeletal muscle): −1.673 | DDB2 expression fc (cultured human skeletal muscle): −1.408 | DDIT4 expression fc (cultured human skeletal muscle): −1.522 | DDX60L expression fc (cultured human skeletal muscle): −1.638 | DKFZp451A211 expression fc (cultured human skeletal muscle): −1.833 | DNAJB2 expression fc (cultured human skeletal muscle): −1.488 | DUSP10 expression fc (cultured human skeletal muscle): −1.39 | ERAP2 expression fc (cultured human skeletal muscle): −1.605 | ESPNL expression fc (cultured human skeletal muscle): −1.567 | FADS1 expression fc (cultured human skeletal muscle): −1.845 | FAM110B expression fc (cultured human skeletal muscle): −1.675 | FAM175A expression fc (cultured human skeletal muscle): −1.54 | FHL2 expression fc (cultured human skeletal muscle): −1.58 | FILIP1L expression fc (cultured human skeletal muscle): −1.784 | FKBP5 expression fc (cultured human skeletal muscle): −1.758 | FOXQ1 expression fc (cultured human skeletal muscle): −1.432 | FPR1 expression fc (cultured human skeletal muscle): −1.603 | FST expression fc (cultured human skeletal muscle): −1.812 | FUCA1 expression fc (cultured human skeletal muscle): −1.615 | GALK1 expression fc (cultured human skeletal muscle): −1.411 | GALNTL2 expression fc (cultured human skeletal muscle): −1.834 | GAS1 expression fc (cultured human skeletal muscle): −1.732 | GBP4 expression fc (cultured human skeletal muscle): −1.478 | GFPT2 expression fc (cultured human skeletal muscle): −1.612 | GPX8 expression fc (cultured human skeletal muscle): −1.606 | GRINA expression fc (cultured human skeletal muscle): −1.427 | GSDMD expression fc (cultured human skeletal muscle): −1.763 | HAS2 expression fc (cultured human skeletal muscle): −1.679 | HCG4 expression fc (cultured human skeletal muscle): −1.651 | HES4 expression fc (cultured human skeletal muscle): −1.751 | HLA-C expression fc (cultured human skeletal muscle): −1.788 | HLA-H expression fc (cultured human skeletal muscle): −1.798 | HOXC6 expression fc (cultured human skeletal muscle): −1.539 | ID3 expression fc (cultured human skeletal muscle): −1.627 | IDH3B expression fc (cultured human skeletal muscle): −1.542 | IFIT5 expression fc (cultured human skeletal muscle): −1.645 | IFITM2 expression fc (cultured human skeletal muscle): −1.713 | IGFBP5 expression fc (cultured human skeletal muscle): −1.441 | IHPK3 expression fc (cultured human skeletal muscle): −1.859 | IL32 expression fc (cultured human skeletal muscle): −1.681 | IMPA2 expression fc (cultured human skeletal muscle): −1.437 | IRAK2 expression fc (cultured human skeletal muscle): −1.447 | IRAK3 expression fc (cultured human skeletal muscle): −1.5 | ISCU expression fc (cultured human skeletal muscle): −1.547 | ITPRIP expression fc (cultured human skeletal muscle): −1.763 | KIAA1618 expression fc (cultured human skeletal muscle): −1.843 | KLF6 expression fc (cultured human skeletal muscle): −1.659 | KRT17 expression fc (cultured human skeletal muscle): −1.626 | LAP3 expression fc (cultured human skeletal muscle): −1.552 | LIMA1 expression fc (cultured human skeletal muscle): −1.463 | LOC387763 expression fc (cultured human skeletal muscle): −1.46 | LOC389386 expression fc (cultured human skeletal muscle): −1.521 | LOC392437 expression fc (cultured human skeletal muscle): −1.674 | LOC653879 expression fc (cultured human skeletal muscle): −1.416 | LOC728431 expression fc (cultured human skeletal muscle): −1.44 | MAMDC2 expression fc (cultured human skeletal muscle): −1.858 | MAOA expression fc (cultured human skeletal muscle): −1.71 | MCEE expression fc (cultured human skeletal muscle): −1.398 | MGC16121 expression fc (cultured human skeletal muscle): −1.828 | MIOS expression fc (cultured human skeletal muscle): −1.485 | MLPH expression fc (cultured human skeletal muscle): −1.788 | MMP3 expression fc (cultured human skeletal muscle): −1.509 | MOCOS expression fc (cultured human skeletal muscle): −1.716 | MOV10 expression fc (cultured human skeletal muscle): −1.658 | MSC expression fc (cultured human skeletal muscle): −1.605 | MSI2 expression fc (cultured human skeletal muscle): −1.763
